Data set [1] in a line: Solubility in phosphate buffer. Type of data set: physicochemical. How it is done:
Synthesis of 1,3-dihydroxy-2-(2-thienyl)-4,4,5,5,-tetramethylimidazolidine (compound 4 where R is compound 4c) was conducted as shown on FIG. 1. Anhydro adduct (compound 3 where R is compound 4c) was synthesized from treatment of 2,3-bis-(hydroxyamino)-2,3-dimetylbutansulfate (compound 1 where R is compound 4c) and 2-thiophenecarboxaldehyde (compound 2 where R is compound 4c) in water and methanol where compound 3 was a stable white solid insoluble in water. Compound 3 was oxidized by lead oxide in chloroform to form blue crystals (compound 4 where R is 4c). […] The nitronyl nitroxide monoradicals (compound 4 where R is compound 4a or 4b) have been tested for nitric oxide scavenge activity as described below in greater detail.

The nature of data set [2]: Stability of the nitronyl nitroxide monoradical on isolation. It is filed as physicochemical. The settings on record: after oxidation with manganese dioxide in ether and column chromatography. How it is done: Synthesis of 1,3-Dihydroxy-2-(2,4-dihydroxyphenyl)-4,4,5,5,-tetramethylimidazolidine (compound 4 where R is compound 4a) was conducted as shown in FIG. 1. Anhydro adduct compound 3 where R is compound 4a was synthesized from treatment of 2,3-bis-(hydroxyamino)-2,3-dimetylbutansulfate (compound 1 where R is compound 4a) and 2,4-dihydroxybenzaldehyde (compound 2 where R is compound 4a) in a mixture of water and methanol. The nitronyl nitroxide monoradical (compound 4 where R is compound 4a) was obtained after oxidation of compound 3 (where R is compound 4a) with manganese dioxide in ether. Compound 4 was very unstable where only 2.5 mg of compound 4 was obtained after column chromatography.

A short description of data set [3]: NO scavenger assessment: direct measurement of nitric oxide with NO-selective microelectrode. It is filed as biochemical. Particulars: anaerobic, room temperature, phosphate buffer 50 mM pH 7.4. The method, then:
The nitric oxide (NO) scavenging activity of various compounds was determined by the direct measurement of nitric oxide. Using a NO-selective microelectrode (World Precision Instruments, ISO-NO Mark II) the nitric oxide concentration was monitored upon the addition of the test compound. The reaction rate constant was calculated for each compound. Test compounds were added in molar excess, and therefore pseudo first-order reaction kinetics were observed. The rate constant (ln ks) for each compound was calculated. Reactions were performed under anaerobic conditions at room temperature, in phosphate buffer (50 mM, pH 7.4).

Data set [4] deals with anesthetized rats treated with LPS to induce hypotension. Briefly: Hydroxocobalamin animal study: MAP and HR of anesthetized rats treated with LPS to induce hypotension. It is filed as in vivo, Sprague-Dawley rats. How it is done: Applicants have conducted a study to assess the effect of hydroxocobalamin on the mean arterial pressure (MAP) and heart rate (HR) of anesthetized rats that had been treated with LPS to induce hypotension as described in greater detail below.
Three male Sprague-Dawley rats were acutely instrumented with femoral arterial and venous catheters. Rats were initially anesthetized using a 60 mg/kg i.p. dose of Nembutal (sodium pentobarbital.) Each rat was then instrumented with one arterial catheter for blood pressure measurement, and two venous catheters for test article administration, and infusion of Nembutal (0.42 mL/kg/hr) for maintenance of surgical anesthesia. After placement of the catheters, rats were moved to plexiglass boxes to begin hemodynamic measurements. Baseline data were collected for 30 minutes prior to experimental manipulation in order to verify that all rats were properly anesthetized, and that baseline MAP and HR were within acceptable baseline ranges. Following baseline data collection, each rat received a 5 mg/kg intravenous dose of LPS at a rate of 1 mL/min. After achieving a sustained hypotension at approximately 60 minutes after the LPS infusion, one rat received a 6 mL/kg intravenous dose of hydroxocobalamin (14.5 mM in PBS) over a period of one hour. The remaining two rats each received a 4.57 mL/kg intravenous dose of saline over a period of one hour. MAP and HR measurements continued for 2 hours after hydroxocobalamin or saline infusion. Following LPS administration, all three rats received a continuous intravenous administration of Lactated Ringer's solution in order to prevent dehydration (2.4 mL/kg/hr). Due to a limited amount of hydroxocobalamin, it was only possible to dose one animal with this compound.

As for `CC1(C)N(O)C(c2ccc(O)cc2O)N(O)C1(C)C` [4a, 1,3-Dihydroxy-2-(2,4-dihydroxyphenyl)-4,4,5,5,-tetramethylimidazolidine], the “solubility in phosphate buffer” value in data set [1] is “soluble in phosphate buffer”. The stability result in data set [2] is given as “very unstable”.
For `CC1(C)N([O])C(c2ccc(C(=O)O)cc2)=[N+]([O-])C1(C)C` [Carboxy-PTIO], the “Rate of NO Scavenging, ln ks” value came to 3.8 in data set [3] (Molar ratio scavenger to NO 28:1), 3.9 in data set [3] (Molar ratio scavenger to NO 56:1), 3.5 in data set [3] (Molar ratio scavenger to NO 91:1) and 3.4 in data set [3] (Molar ratio scavenger to NO 129:1).
For `CC1(C)N(O)C(c2ccncc2)N(O)C1(C)C` [NN-2, 1,3-Dihydroxy-2-(4-pyridyl)-4,4,5,5,-tetramethylimidazolidine], the “Rate of NO Scavenging, ln ks” value in data set [3] (Molar ratio scavenger to NO 42:1) is recorded as 3.7; in data set [3] (Molar ratio scavenger to NO 111:1), 3.4. Besides, the “solubility in phosphate buffer” value in data set [1] is given as “soluble in phosphate buffer”.
Regarding `CC1(C)N(O)C(c2cccs2)N(O)C1(C)C` [NN-3, 1,3-Dihydroxy-2-(2-thienyl)-4,4,5,5,-tetramethylimidazolidine], the “Rate of NO Scavenging, ln ks” value in data set [3] (Molar ratio scavenger to NO 71:1) and in data set [3] (Molar ratio scavenger to NO 126:1) was 2.8 throughout. In data set [1], the “solubility in phosphate buffer” value is given as “soluble in phosphate buffer”.
As to `C/C1=C2/[N-][C@H]([C@H](CC(N)=O)[C@@]2(C)CCC(=O)NC[C@@H](C)OP(=O)([O-])OC2C(O)[C@@H](n3cnc4cc(C)c(C)cc43)O[C@@H]2CO)[C@]2(C)N=C(/C(C)=C3N=C(/C=C4N=C1[C@@H](CCC(N)=O)C\4(C)C)[C@@H](CCC(N)=O)[C@]\3(C)CC(N)=O)[C@@H](CCC(N)=O)[C@]2(C)CC(N)=O.CC(=O)[O-].[Co+3]` (some centres unmarked) [Vitamin B12a (acetate)], the “Rate of NO Scavenging, ln ks” value in data set [3] (Molar ratio scavenger to NO 33:1) amounted to 3.7; in data set [3] (Molar ratio scavenger to NO 47:1), 3.4; in data set [3] (Molar ratio scavenger to NO 142:1), 3.7; in data set [3] (Molar ratio scavenger to NO 277:1), 3.1.
`C/C1=C2/[N-][C@H]([C@H](CC(N)=O)[C@@]2(C)CCC(=O)NC[C@@H](C)OP(=O)([O-])O[C@H]2[C@@H](O)[C@@H](n3cnc4cc(C)c(C)cc43)O[C@@H]2CO)[C@]2(C)N=C(/C(C)=C3N=C(/C=C4N=C1[C@@H](CCC(N)=O)C\4(C)C)[C@@H](CCC(N)=O)[C@]\3(C)CC(N)=O)[C@@H](CCC(N)=O)[C@]2(C)CC(N)=O.[Co+3].[OH-]` [hydroxocobalamin]: the “MAP below baseline levels” value in data set [4] (60-180 minutes post-LPS (5 mg/kg i.v.), 6 mL/kg i.v. of 14.5 mM in PBS over one hour from 60 min post-LPS, one rat) is 10-20 mmHg. Moreover, in data set [4] (LPS 5 mg/kg i.v., 6 mL/kg i.v. of 14.5 mM in PBS over one hour, one rat, both saline rats died), the survival entry is recorded as “survived the entire experiment”. Further, the “effect on HR and MAP (in words)” value in data set [4] (anesthetized rat with LPS-induced hypotension, summary) was “increased HR and allowed MAP to be maintained”. For the same molecule, the “HR above baseline levels” value in data set [4] (from 60 minutes post-LPS infusion, 6 mL/kg i.v. of 14.5 mM in PBS over one hour, one rat) is “approximately 140 bpm”.

These data come from patent US9511053B2, “Nitric oxide scavengers” (Baxter International Inc., priority 2004, dated 2016).
